Assay results published in patent publication US6586441B2, “Adenosine receptor ligands and their use in the treatment of disease” (Hoffman-La Roche Inc., priority 2000, dated 2003).
Each block holds one compound with its values, some of them ahead of it.

Legend:
[1] = molecular target: T1, human adenosine A2A receptor (Homo sapiens, UniProt P29274); test: Human adenosine A2A receptor [3H]-SCH-58261 binding assay; settings: for hA2 (pKi): human A2A receptor, selectivity table; for Ki / pKi (affinity to the human A2a receptor): human A2a receptor, membranes of CHO cells, [3H]-SCH-58261; for Ki: read-out: pKi (affinity to the human A2a receptor) (converted)
T1 construct: expressed in transfected cells; host or cells: CHO cells, semliki forest virus expression system; membrane preparation
Description: (§1) The gene encoding human adenosine A2A receptor was recombinantly introduced and expressed in chinese hamster ovary (CHO) cells using the semliki forest virus expression system. Cells were harvested, washed twice by centrifugation, homogenised and again washed by centrifugation. The final washed membrane pellet was suspended in a Tris (50 mM) buffer containing 120 mM NaCl, 5 mM KCl, 2 mM CaCl2 and 10 mM MgCl2 (pH 7.4) (buffer A). The [^3H]-SCH-58261 (Dionisotti et al., 1997, Br. J. Pharmacol. 121, 353; 1 nM) binding assay was carried out in 96-well plates in the presence of 2.5 μg of membrane protein, 0.5 mg of Ysi-poly-1-lysine SPA beads and 0.1 U adenosine deaminase in a final volume of 200 μl of buffer A. Non-specific binding was defined using xanthine amine congener (XAC; 2 EM). Compounds were tested at 10 concentrations from 10 μM-0.3 nM. All assays were conducted in duplicate and repeated at least two times. Assay plates were incubated for 1 hour at room temperature before centrifugation and then bound ligand determined using a Packard Topcount scintillation counter. IC50 values were calculated using a non-linear curve fitting program and Ki values calculated using the Cheng-Prussoff equation.

[2] = molecular target: T2, human adenosine A1 receptor (Homo sapiens, UniProt P30542); test: Human adenosine A1 receptor [3H]-DPCPX binding assay; settings: membranes of CHO cells, read-out: hA1 (pKi) (converted)
T2 construct: expressed in transfected cells; host or cells: CHO cells, semliki forest virus expression system; membrane preparation
T2 sequence (P30542 1-326): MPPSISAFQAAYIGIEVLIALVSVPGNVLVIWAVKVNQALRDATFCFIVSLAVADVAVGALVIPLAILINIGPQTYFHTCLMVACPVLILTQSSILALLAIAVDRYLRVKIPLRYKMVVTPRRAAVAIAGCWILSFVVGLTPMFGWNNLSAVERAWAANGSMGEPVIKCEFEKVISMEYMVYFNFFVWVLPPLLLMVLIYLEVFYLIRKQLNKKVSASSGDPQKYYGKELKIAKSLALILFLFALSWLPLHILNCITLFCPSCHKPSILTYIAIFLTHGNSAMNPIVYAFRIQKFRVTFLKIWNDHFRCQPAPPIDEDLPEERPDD
Description: as §1, with “A1” for “A2A”, “[^3H]-DPCPX (([propyl-3H]8-cyclopentyl-1,3-dipropyxanthine); 0.6” for “[^3H]-SCH-58261 (Dionisotti et al., 1997, Br. J. Pharmacol. 121, 353; 1”, “0. I” for “0.1”, “μM).” for “EM).”

T1 sequence (P29274 whole entry): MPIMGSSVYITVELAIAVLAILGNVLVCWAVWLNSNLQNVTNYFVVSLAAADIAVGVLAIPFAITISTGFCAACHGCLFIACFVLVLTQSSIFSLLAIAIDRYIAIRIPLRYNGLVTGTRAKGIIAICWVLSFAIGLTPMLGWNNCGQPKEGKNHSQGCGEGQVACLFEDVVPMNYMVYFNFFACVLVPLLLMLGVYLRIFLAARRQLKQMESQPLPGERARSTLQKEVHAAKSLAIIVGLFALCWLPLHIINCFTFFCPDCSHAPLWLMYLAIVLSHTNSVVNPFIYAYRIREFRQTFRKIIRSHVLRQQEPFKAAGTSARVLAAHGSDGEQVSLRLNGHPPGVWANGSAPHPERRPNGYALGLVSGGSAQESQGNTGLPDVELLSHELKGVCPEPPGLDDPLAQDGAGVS

SMILES: Cc1ccc(CNc2nc(N)nc(-c3ccco3)c2C#N)cc1 [Example 290, 2-Amino-4-furan-2-yl-6-(4-methyl-benzylamino)-pyrimidine-5-carbonitrile]
hA2 (pKi) [1]: 8.17
Ki [1]: 6.76 nM
Ki [2]: 2040 nM

SMILES: N#Cc1c(NCc2ccc(C(F)(F)F)cc2)nc(N)nc1-c1ccco1 [Example 345, 2-Amino-4-furan-2-yl-6-(4-trifluoromethyl-benzylamino)-pyrimidine-5-carbonitrile]
hA2 (pKi) [1]: 8.38
Ki [1]: 4.17 nM
Ki [2]: 6310 nM

SMILES: N#Cc1c(NCc2ccc3ccccc3c2)nc(N)nc1-c1ccco1 [Example 298, 2-Amino-4-furan-2-yl-6-[(naphthalen-2-ylmethyl)-amino]-pyrimidine-5-carbonitrile]
hA2 (pKi) [1]: 8.23
Ki [1]: 5.89 nM
Ki [2]: 6920 nM

SMILES: Cc1ccc(-c2nc(N)nc(NCc3ccccc3)c2C#N)o1 [Example 245, 2-Amino-4-benzylamino-6-(5-methyl-furan-2-yl)-pyrimidine-5-carbonitrile]
Ki [1]: 5.5 nM

SMILES: Cc1ccnc(CNc2nc(N)nc(-c3ccco3)c2C#N)c1 [Example 348, 2-Amino-4-furan-2-yl-6-[(4-methyl-pyridin-2-ylmethyl)-amino]-pyrimidine-5-carbonitrile]
Ki [1]: 2.09 nM

SMILES: N#Cc1c(NCCCc2ccccc2)nc(N)nc1-c1ccco1 [Example 44, 2-Amino-4-furan-2-yl-6-(3-phenyl-propylamino)-pyrimidine-5-carbonitrile]
Ki [1]: 2.51 nM

SMILES: N#Cc1c(OCc2ccccn2)nc(N)nc1-c1ccccc1 [Example 105, 2-Amino-4-phenyl-6-(pyridin-2-ylmethoxy)-pyrimidine-5-carbonitrile]
Ki [1]: 7.41 nM

SMILES: N#Cc1c(OCc2ccccn2)nc(N)nc1-c1ccco1 [Example 76, 2-Amino-4-furan-2-yl-6-(pyridin-2-ylmethoxy)-pyrimidine-5-carbonitrile]
Ki [1]: 2.09 nM

SMILES: Nc1nc(OCCCc2ccccc2)c(Cl)c(-c2ccco2)n1 [Example 321, 5-Chloro-4-furan-2-yl-6-(3-phenyl-propoxy)-pyrimidin-2-yl-amine]
Ki [1]: 2.82 nM

SMILES: N#Cc1nc(N)nc(-c2ccco2)c1C#N [Example 94, 2-Amino-6-furan-2-yl-pyrimidine-4,5-dicarbonitrile]
Ki [1]: 9.77 nM

SMILES: N#Cc1c(OC2CCCCC2)nc(N)nc1-c1ccco1 [Example 55, 2-Amino-4-cyclohexyloxy-6-furan-2-yl-pyrimidine-5-carbonitrile]
Ki [1]: 7.41 nM

SMILES: N#Cc1c(NCc2ccccn2)cc(N)nc1-c1ccco1 [Example 371, 6-Amino-2-furan-2-yl-4-[(pyridin-2-yl-methyl)-amino]-nicotinonitrile]
Ki [1]: 8.13 nM

SMILES: Cc1ccc(CNc2nc(N)nc(-c3ccco3)c2C#N)nc1 [Example 363, 2-Amino-4-furan-2-yl-6-[(5-methyl-pyridin-2-yl-methyl)-amino]-pyrimidine-5-carbonitrile]
Ki [1]: 3.24 nM

SMILES: N#Cc1c(SCCc2ccccn2)nc(N)nc1-c1ccco1 [Example 313, 2-Amino-4-furan-2—,yl-6-(2-pyridin-2-yl-ethylsulfanyl)-pyrimidine-5-carbonitrile]
Ki [1]: 0.832 nM

SMILES: N#Cc1c(OCCNc2ccccc2)nc(N)nc1-c1ccco1 [Example 231, 2-Amino-4-furan-2-yl-6-(2-1-phenylamino-ethoxy)-pyrimidine-5-carbonitrile]
Ki [1]: 8.13 nM

SMILES: N#Cc1c(NCc2ccc3ccccc3n2)cc(N)nc1-c1ccco1 [Example 364, 6-Amino-2-furan-2-yl-4-[(quinolin-2-ylmethyl)-amino]-nicotinonitrile]
Ki [1]: 3.89 nM

SMILES: Nc1nc(SCCc2ccccc2)c(Br)c(-c2ccco2)n1 [Example 269, 5-Bromo-4-furan-2-yl-6-phenethylsulfanyl-pyrimidin-2-yl-amine]
Ki [1]: 7.76 nM

SMILES: N#Cc1c(SCCCc2ccccc2)nc(N)nc1-c1ccccc1 [Example 85, 2-Amino-4-phenyl-6-(3-phenyl-propylsulfanyl)-pyrimidine-5-carbonitrile]
Ki [1]: 7.94 nM

SMILES: Nc1nc(OCCCc2ccccc2)c(I)c(-c2ccco2)n1 [Example 267, 4-Furan-2-yl-5-iodo-6-(3-phenyl-propoxy)-pyrimidin-2-yl-amine]
Ki [1]: 4.37 nM

SMILES: Cc1cccnc1COc1nc(N)nc(-c2ccco2)c1C#N [Example 361, 2-Amino-4-furan-2-yl-6-(3-methyl-pyridin-2-yl-methoxy)-pyrimidine-5-carbonitrile]
Ki [1]: 0.603 nM

SMILES: Nc1nc(SCCc2ccccn2)c(I)c(-c2ccco2)n1 [Example 352, 4-Furan-2-yl-5-iodo-6-(2-pyridin-2-yl-ethylsulfanyl)-pyrimidin-2-yl-amine]
Ki [1]: 5.13 nM

Continued, values first:

hA2 (pKi) [1]: 8.44
Ki [1]: 3.63 nM
Ki [2]: 4470 nM
SMILES: N#Cc1c(NCc2ncc(C(F)(F)F)cc2Cl)nc(N)nc1-c1ccco1 [Example 400, 2-Amino-4-[(3-chloro-5-trifluoromethyl-pyridin-2-yl-methyl)-amino]-6-furan-2-yl-pyrimidine-5-carbonitrile]

Ki [1]: 0.955 nM
SMILES: Cc1cccnc1COc1nc(N)nc(-c2cc(Br)co2)c1C#N [Example 534, 2-Amino-4-(4-bromo-furan-2-yl)-6-(3-methyl-pyridin-2-yl-methoxy)-pyrimidine-5-carbonitrile]

pKi (affinity to the human A2a receptor) [1]: 8.97
SMILES: Cc1cnc(COc2nc(N)nc(-c3ccc(C)o3)c2C#N)c(C)c1 [Example 466, 2-Amino-4-(3,5-dimethyl-pyridin-2-ylmethoxy)-6-(5-methyl-furan-2-yl)-pyrimidine-5′-carbonitrile]

Ki [1]: 3.98 nM
SMILES: N#Cc1coc(-c2nc(N)nc(SCCc3ccccn3)c2C#N)c1 [Example 535, 2-Amino-4-(4-cyano-furan-2-yl)-6-(2-pyridin-2-yl-ethylsulfanyl)-pyrimidine-5-carbonitrile]

Ki [1]: 1.91 nM
SMILES: Cc1cccnc1COc1cc(N)nc(-c2ccco2)c1C#N [Example 383, 6-Amino-2-furan-2-yl-4-(3-methyl-pyridin-2-yl-methoxy)-nicotinonitrile]

Ki [1]: 8.32 nM
SMILES: N#Cc1c(N)nc(SCc2ccccc2)c(C#N)c1-c1cccs1 [Example 389, 2-Amino-6-benzylsulfanyl-4-thiophen-2-yl-pyridine-3.5-dicarbonitrile]

pKi (affinity to the human A2a receptor) [1]: 8.96
SMILES: N#Cc1c(SCCc2ccccn2)nc(N)nc1-c1ccc(Cl)o1 [Example 478]

Ki [1]: 5.62 nM
SMILES: Cc1ccc(COc2nc(N)nc(-c3cc(Br)co3)c2C#N)nc1 [Example 532, 2-Amino-4-(4-bromo-furan-2-yl)-6-(5-methyl-pyridin-2-yl-methoxy)-pyrimidine-5-carbonitrile]

Ki [1]: 0.871 nM
SMILES: N#Cc1c(OCCc2ccccn2)nc(N)nc1-c1ccc(Cl)o1 [Example 525, 2-Amino-4-(5-chloro-furan-2-yl)-6-(2-pyridin-2-yl-ethoxy)-pyrimidine-5-carbonitrile]
